Values quoted from earlier work in patent publication US12552784B2, “1H-pyrrolo[2,3-b]pyridine derivatives as BCL-2 inhibitors for the treatment of neoplastic and autoimmune diseases” (priority 2019, dated 2026).
pEC50, pIC50, pKi: −log10 of the molar value. One block for each compound: values may come before it.

Experiments:
[1] = tested on: RS4;11 xenografts; details: single dose of 100 mg/kg
[2] = tested on: DoHH2; details: single agent or in combination with Bendamustine and other agents
[3] = tested on: RS4;11 cells
[4] = tested on: CLL; details: average; read-out: EC50 apoptosis in CLL
[5] = tested on: Granta-519; details: single agent or in combination with Bendamustine and other agents
[6] = tested on: CLL who have 17p deletion; details: Human Phase I and II
[7] = tested on: acute lymphoblastic leukemia; details: oral administration alone
[8] = tested on: small-cell lung cancer; details: oral administration alone
[9] = tested on: circulating platelets
[10] = tested on: SCLC H146 cell line; details: read-out: IC50 against SCLC H146 cell line
[11] = target: T1, Bcl-w (Homo sapiens, UniProt Q92843)
T1 sequence (Q92843 1-193): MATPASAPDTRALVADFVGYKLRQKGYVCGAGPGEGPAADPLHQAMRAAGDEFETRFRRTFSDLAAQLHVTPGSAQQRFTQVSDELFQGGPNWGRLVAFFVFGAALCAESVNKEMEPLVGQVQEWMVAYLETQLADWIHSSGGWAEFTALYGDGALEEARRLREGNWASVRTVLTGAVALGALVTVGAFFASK

[12] = in vivo
[13] = tested on: H345 xenograft model; details: 100 mg/kg/day
[14] = tested on: established tumors; details: animal models

pEC50 [3]: 8.10
pEC50 [4]: 8.52
Structure (SMILES): CC1(C)CCC(CN2CCN(c3ccc(C(=O)NS(=O)(=O)c4ccc(NCC5CCOCC5)c([N+](=O)[O-])c4)c(Oc4cnc5[nH]ccc5c4)c3)CC2)=C(c2ccc(Cl)cc2)C1 [ABT-199]
maximal tumor growth inhibition [1]: 95%
tumor growth delay [1]: 152%
xenograft growth [2]: inhibits xenograft growth
apoptosis in RS4;11 cells ([3]; with cytochrome c release, caspase activation, accumulation of sub-G0/G1 DNA): rapid apoptosis
xenograft growth [5]: inhibits xenograft growth
clinical efficacy [6]: highly efficacious

number of circulating platelets ([9]; clinical trial): rapid, concentration-dependent decrease
pIC50 [10]: 6.96
pKi [11]: ≥ 9.00
oral bioavailability [12]: orally bioavailable
Structure (SMILES): CC1(C)CCC(c2ccc(Cl)cc2)=C(CN2CCN(c3ccc(C(=O)NS(=O)(=O)c4ccc(N[C@H](CCN5CCOCC5)CSc5ccccc5)c(S(=O)(=O)C(F)(F)F)c4)cc3)CC2)C1 [ABT-263]
tumor regression [7]: complete tumor regressions
tumor regression [8]: complete tumor regressions
dose-limiting toxicity ([9]; single-agent treatment in patients): mechanism-based thrombocytopenia
TGI [13]: 80%
treated tumors indicating at least a 50% reduction in tumor volume [13]: 20%

Structure (SMILES): CN(C)CC[C@H](CSc1ccccc1)Nc1ccc(S(=O)(=O)NC(=O)c2ccc(N3CCN(Cc4ccccc4-c4ccc(Cl)cc4)CC3)cc2)cc1[N+](=O)[O-] [ABT-737]
aqueous solubility: low aqueous solubility
cures [14]: produces cures in a high percentage of the mice
survival [14]: improves survival
tumor regression [14]: causes regression of established tumors
oral bioavailability [12]: not orally bioavailable
